Here are results for four compounds from patent US3995062A, “Halocyclopropyl halomethyl ethers” (priority 1975, dated 1976).

This series concerns Mice. The experiment in a line: Standard test for evaluation of inhalation anesthetics (mice in rotating drum; AC50, LC50, anesthetic index). Particulars: 10 minutes exposure; for Anesthetic index AI (LC50/AC50): calculated from LC50 and AC50; for AC50 (minimum concentration required to anesthetize 50% of the mice) / LC50 (minimum concentration required to kill 50% of the mice): when two figures are given, the actual parameter lies between them. The format is in vivo. As to the method: Mice were exposed to the anesthetic for a period of 10 minutes in a rotating drum. Observations were then made of the pinch reflex, the corneal reflex and the return of the righting reflex. At least four graded doses were employed to determine the minimum concentration required to anesthetize 50% of the mice used (AC50) and the minimum concentration required to kill 50% of the mice (LC50). The anesthetic index (AI) was then calculated from these minimum concentrations.

Regarding `FC(F)OC1(F)C(F)(F)C1(F)Br` (stereo not drawn) [Example 9, 1-bromo-2-difluoromethoxy-1,2,3,3-tetrafluorocyclopropane], the “Anesthetic index AI (LC50/AC50)” value was more than 4, the “AC50 (minimum concentration required to anesthetize 50% of the mice)” value is 1 % volume and the “LC50 (minimum concentration required to kill 50% of the mice)” value is more than 4 % volume.

Regarding `FC(Cl)OC1(F)C(F)(F)C1(F)Br` (stereo not drawn) [Example 10, 1-bromo-2-chlorofluoromethoxy-1,2,3,3-tetrafluorocyclopropane], the “Anesthetic index AI (LC50/AC50)” value was ~ 2, the “AC50 (minimum concentration required to anesthetize 50% of the mice)” value is 2-4 % volume and the “LC50 (minimum concentration required to kill 50% of the mice)” value was 6-8 % volume.

As to `FC(Cl)OC1(F)C(F)(F)C1(F)Cl` (stereo not drawn) [Example 8, 1-chloro-2-chlorofluoromethoxy-1,2,3,3-tetrafluorocyclopropane], the “Anesthetic index AI (LC50/AC50)” value is 4-5, the “AC50 (minimum concentration required to anesthetize 50% of the mice)” value is listed as 2 % volume and the “LC50 (minimum concentration required to kill 50% of the mice)” value was 8-10 % volume.

In the case of `FC(F)OC1(F)C(F)(F)C1(F)Cl` (stereo not drawn) [Example 7, 1-chloro-2-difluoromethoxy-1,2,3,3-tetrafluorocyclopropane], the “Anesthetic index AI (LC50/AC50)” value is given as more than 1, the “AC50 (minimum concentration required to anesthetize 50% of the mice)” value was 2-10 % volume and the “LC50 (minimum concentration required to kill 50% of the mice)” value is more than 10 % volume.
